Assay results from ChEMBL document CHEMBL1201862, “PubChem BioAssay data set” (2004).
The source made the active and inactive calls.

Experiments:
[1] = biological target: G-protein coupled receptor 55 (Homo sapiens, UniProt Q9Y2T6); experiment: selective activators of receptor GPR55 – imaging, U2OS cells, beta-arrestin-GFP redistribution, primary screen (AID 1961); format: functional
[2] = biological target: T1, RNA-binding protein pos-1 (Caenorhabditis elegans, UniProt G5EF15); experiment: disruptors of C. elegans POS-1 RNA interaction – biochemical, fluorescence polarization, dose response (AID 1964);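 note: purified POS-1 fused to maltose binding protein made in E. coli; potency of compounds blocking POS-1 binding to fluorescent RNA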
T1 sequence (G5EF15 whole entry): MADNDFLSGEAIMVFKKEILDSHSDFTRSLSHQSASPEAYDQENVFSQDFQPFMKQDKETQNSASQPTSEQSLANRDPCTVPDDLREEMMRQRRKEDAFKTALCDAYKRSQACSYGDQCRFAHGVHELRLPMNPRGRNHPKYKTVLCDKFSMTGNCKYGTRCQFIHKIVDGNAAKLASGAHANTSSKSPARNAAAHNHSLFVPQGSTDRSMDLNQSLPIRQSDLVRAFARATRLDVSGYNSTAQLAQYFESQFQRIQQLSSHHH

[3] = biological target: T2, DNA repair and recombination protein RAD54-like (Homo sapiens, UniProt Q92698); experiment: RAD54 Holliday junction migration blockers – biochemical, fluorescence, cherry-picked samples, dose series, confirmation (AID 651657); format: functional
T2 sequence (Q92698 whole entry): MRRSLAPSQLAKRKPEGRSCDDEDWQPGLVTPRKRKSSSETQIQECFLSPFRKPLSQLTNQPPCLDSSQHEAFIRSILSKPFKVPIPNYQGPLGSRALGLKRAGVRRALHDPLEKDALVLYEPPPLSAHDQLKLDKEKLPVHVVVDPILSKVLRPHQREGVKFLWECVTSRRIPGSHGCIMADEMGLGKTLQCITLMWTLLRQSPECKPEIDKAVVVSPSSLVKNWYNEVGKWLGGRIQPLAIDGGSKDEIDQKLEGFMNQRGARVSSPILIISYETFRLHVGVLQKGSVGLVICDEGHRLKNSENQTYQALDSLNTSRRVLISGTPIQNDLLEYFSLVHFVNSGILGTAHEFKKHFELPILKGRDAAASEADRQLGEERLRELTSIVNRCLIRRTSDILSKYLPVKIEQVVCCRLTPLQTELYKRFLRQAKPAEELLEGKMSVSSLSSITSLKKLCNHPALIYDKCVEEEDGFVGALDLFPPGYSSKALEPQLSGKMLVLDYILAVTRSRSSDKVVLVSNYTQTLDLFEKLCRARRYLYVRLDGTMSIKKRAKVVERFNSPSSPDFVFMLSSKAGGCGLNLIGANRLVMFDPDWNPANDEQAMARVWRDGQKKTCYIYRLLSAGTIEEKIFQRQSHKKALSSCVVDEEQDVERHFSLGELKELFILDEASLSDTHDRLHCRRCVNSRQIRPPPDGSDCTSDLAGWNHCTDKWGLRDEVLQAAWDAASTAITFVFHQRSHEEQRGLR

[4] = biological target: T3, Zinc finger protein mex-5 (Caenorhabditis elegans, UniProt Q9XUB2); experiment: potency of MEX-5 RNA-binding blockers – biochemical, C. elegans, fluorescence polarization, dose response (AID 1960)
T3 sequence (Q9XUB2 whole entry): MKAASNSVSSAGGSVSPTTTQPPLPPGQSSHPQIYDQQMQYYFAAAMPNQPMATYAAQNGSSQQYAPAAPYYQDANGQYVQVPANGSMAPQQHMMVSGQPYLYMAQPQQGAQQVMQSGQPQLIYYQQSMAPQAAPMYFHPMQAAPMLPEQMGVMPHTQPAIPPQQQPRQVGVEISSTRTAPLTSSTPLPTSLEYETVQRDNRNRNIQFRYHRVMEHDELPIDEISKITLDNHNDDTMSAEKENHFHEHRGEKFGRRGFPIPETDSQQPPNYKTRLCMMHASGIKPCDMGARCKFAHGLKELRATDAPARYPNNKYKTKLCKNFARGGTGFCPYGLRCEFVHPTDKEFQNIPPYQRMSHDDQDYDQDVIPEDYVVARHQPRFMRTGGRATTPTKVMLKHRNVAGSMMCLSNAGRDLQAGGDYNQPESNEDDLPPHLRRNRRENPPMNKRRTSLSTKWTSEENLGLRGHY

[5] = Luminescence Cell-Based Dose Confirmation HTS to Identify Activators of 5'UTR Stem-Loop Driven Alpha-Synuclein mRNA Translation in H4 Neuroglioblastoma Cells. [Related pubchem assays: 1829 (Project Summary), 1814 (Primary HTS)]; format: functional
Aminopeptidase N = biological target: T4, Aminopeptidase N (Plasmodium falciparum FcB1/Columbia, UniProt O96935); experiment: malaria alanyl aminopeptidase activity blockers – biochemical, fluorogenic H-Leu-NHMec substrate, 1536-well (AID 1445); design: species or system Plasmodium falciparum 3D7, 3D7
T4 sequence (O96935 whole entry): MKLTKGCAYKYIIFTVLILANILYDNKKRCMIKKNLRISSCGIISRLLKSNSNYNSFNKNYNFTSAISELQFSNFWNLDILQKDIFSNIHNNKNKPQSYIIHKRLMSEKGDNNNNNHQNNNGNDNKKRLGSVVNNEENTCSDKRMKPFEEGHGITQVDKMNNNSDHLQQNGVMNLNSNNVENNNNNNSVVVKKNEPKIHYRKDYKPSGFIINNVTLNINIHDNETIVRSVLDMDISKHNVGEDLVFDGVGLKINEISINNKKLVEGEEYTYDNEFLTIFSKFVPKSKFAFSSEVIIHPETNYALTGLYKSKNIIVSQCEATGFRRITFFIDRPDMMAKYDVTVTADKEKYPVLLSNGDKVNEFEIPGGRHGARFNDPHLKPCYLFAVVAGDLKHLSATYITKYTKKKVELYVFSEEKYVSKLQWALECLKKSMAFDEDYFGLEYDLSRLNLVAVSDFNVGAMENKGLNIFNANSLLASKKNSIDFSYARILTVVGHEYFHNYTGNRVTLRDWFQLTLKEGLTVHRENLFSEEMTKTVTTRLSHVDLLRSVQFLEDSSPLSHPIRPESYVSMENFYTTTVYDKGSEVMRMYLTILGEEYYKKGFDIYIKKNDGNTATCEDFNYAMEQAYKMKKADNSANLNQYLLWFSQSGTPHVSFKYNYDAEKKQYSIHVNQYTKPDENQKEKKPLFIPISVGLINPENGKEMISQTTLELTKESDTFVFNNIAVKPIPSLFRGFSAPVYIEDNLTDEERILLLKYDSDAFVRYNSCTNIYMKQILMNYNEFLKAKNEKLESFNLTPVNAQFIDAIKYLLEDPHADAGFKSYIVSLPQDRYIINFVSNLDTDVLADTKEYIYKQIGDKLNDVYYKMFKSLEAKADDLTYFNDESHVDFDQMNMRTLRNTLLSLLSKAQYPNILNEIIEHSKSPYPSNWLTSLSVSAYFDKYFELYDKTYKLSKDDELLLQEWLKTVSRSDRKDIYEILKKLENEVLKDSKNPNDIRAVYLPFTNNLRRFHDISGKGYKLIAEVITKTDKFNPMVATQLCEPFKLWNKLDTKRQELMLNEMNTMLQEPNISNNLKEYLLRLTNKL

[6] = Luminescence Cell-Based Dose Response HTS to Identify Activators of Luciferase Translation or Activity in H4 […] Cells. [Related pubchem assays: 1829 (Project Summary), 1814 (Primary HTS)]; format: functional
H4 = experiment: Luminescence Cell-Based Dose Response HTS to Identify Activators of 5'UTR Stem-Loop Driven Prion Protein mRNA Translation in H4 Neuroglioblastoma Cells. [Related pubchem assays: 1829 (Project Summary), 1814 (Primary HTS)]; format: functional; settings: Homo sapiens
[7] = HIV-1 Vif–A3G interaction blockers – biochemical, TR-FRET, GST-Vif 1-94, biotin-A3G peptide, dose response retest, primary screen (AID 1117319); format: functional;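 note: TR-FRET signal of purified GST-Vif binding a biotinylated A3G peptide; inhibitors lower the FRET signal by blocking Vif and A3G binding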
[8] = biological target: DNA dC->dU-editing enzyme APOBEC-3G (Homo sapiens, UniProt Q9HC16); experiment: Dose Response confirmation of small molecule APOBEC3G DNA Deaminase Inhibitors via a fluorescence-based single-stranded DNA deaminase assay. [Related pubchem assays (depositor defined):AID493012, AID493028]; format: functional
[9] = biological target: DNA dC->dU-editing enzyme APOBEC-3A (Homo sapiens, UniProt P31941); experiment: A3A deaminase inhibition for selectivity – biochemical, dose response (AID 504722); format: functional
[10] = P. falciparum Dd2 growth inhibitors, dose response, SYBR Green, cherry-picked samples (AID 1159567); format: functional, cell-based
[11] = toxicity to human hepatoma HepG2 cells – cell-based, cherry-picked samples, cytotoxicity control, dose response (AID 1159577); format: functional
[12] = biological target: T5, Rac GTPase-activating protein 1 (Homo sapiens, UniProt Q9H0H5); experiment: blockers of MgcRacGAP-driven Rac1 GTP hydrolysis – biochemical, ADP Hunter fluorescence, primary and confirmatory, confirmation (AID 624330); format: functional
T5 sequence (Q9H0H5 whole entry): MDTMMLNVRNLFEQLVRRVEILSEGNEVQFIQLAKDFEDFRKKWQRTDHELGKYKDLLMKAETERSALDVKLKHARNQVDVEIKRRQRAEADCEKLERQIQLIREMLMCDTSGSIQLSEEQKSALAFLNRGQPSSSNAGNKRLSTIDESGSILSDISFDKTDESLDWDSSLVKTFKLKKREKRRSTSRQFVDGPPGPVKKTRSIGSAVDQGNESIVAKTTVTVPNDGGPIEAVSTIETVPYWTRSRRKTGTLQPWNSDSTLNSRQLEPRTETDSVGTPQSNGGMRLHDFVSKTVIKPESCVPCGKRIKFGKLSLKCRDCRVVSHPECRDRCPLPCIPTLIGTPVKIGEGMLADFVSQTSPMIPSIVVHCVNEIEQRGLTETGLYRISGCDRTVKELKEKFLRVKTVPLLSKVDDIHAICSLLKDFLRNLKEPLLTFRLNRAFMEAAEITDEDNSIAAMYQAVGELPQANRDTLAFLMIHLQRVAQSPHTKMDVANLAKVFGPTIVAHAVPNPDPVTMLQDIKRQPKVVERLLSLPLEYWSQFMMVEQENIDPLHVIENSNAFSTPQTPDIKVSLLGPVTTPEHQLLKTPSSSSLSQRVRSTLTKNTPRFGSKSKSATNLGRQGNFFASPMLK

[13] = viability loss in HeLa cells – cytotoxicity control for MgcRacGAP inhibitor project, dose response (AID 624300); format: functional
[14] = blockade of melanocortin 4 receptor signaling – cell-based, plate reader, cherry pick, counter-screen for LGR2 antagonist project, dose response (AID 743444); format: functional;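 note: transfected HEK 293 cells stimulated with alpha-MSH peptide; potency of inhibitors of the alpha-MSH evoked signal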
[15] = A549 cell cytotoxicity, dose response, cytotoxicity control, plate reader, cherry-pick, antagonist series (AID 743412); format: functional, cell-based
[16] = blockers of bursicon-stimulated LGR2 cAMP reporter – cell-based, HEK293, CRE-luciferase reporter, cherry pick, set 2, dose response (AID 743343); format: functional;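 note: transfected cells were stimulated with diluted bursicon conditioned medium after compound addition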
[17] = toxicity toward HepG2 liver cells – cell-based, plate reader, cherry-pick, antagonist series, cytotoxicity control, dose response (AID 743416); format: functional
[18] = viability loss in HEK293 cells – cell-based, plate reader, cherry-picked samples, cytotoxicity control, dose response (AID 743446); format: functional

DNA dC->dU-editing enzyme APOBEC-3A, sequence (P31941 whole entry): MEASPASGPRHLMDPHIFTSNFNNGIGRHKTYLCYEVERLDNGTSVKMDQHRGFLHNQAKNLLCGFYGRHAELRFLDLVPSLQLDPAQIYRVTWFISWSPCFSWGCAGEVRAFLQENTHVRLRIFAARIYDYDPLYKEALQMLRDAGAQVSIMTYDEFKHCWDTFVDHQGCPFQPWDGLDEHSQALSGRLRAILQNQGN
DNA dC->dU-editing enzyme APOBEC-3G, sequence (Q9HC16 whole entry): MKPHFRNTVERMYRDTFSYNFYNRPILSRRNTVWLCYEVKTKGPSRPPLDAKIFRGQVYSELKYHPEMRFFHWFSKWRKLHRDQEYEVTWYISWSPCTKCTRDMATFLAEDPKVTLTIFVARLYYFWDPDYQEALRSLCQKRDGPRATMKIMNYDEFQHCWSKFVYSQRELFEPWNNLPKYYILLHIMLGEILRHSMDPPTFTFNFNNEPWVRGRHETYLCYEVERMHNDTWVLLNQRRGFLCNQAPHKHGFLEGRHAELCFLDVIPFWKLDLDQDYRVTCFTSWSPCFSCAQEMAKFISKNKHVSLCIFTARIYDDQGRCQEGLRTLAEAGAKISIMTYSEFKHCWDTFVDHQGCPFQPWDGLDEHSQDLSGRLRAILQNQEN
G-protein coupled receptor 55, sequence (Q9Y2T6 whole entry, the tested form may be a part): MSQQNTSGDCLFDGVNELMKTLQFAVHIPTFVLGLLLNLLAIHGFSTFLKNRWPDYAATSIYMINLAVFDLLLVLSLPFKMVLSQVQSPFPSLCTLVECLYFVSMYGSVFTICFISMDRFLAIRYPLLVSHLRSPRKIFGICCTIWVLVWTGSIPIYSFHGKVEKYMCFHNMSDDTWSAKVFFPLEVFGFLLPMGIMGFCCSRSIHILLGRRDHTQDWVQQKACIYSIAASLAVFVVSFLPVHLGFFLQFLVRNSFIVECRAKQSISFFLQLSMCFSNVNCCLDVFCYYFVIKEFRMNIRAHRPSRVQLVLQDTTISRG

Cc1cc(C)c2sc(N(CCN(C)C)C(=O)c3cc(Cl)sc3Cl)nc2c1
EC50 [1]: 26.2 µM (inactive)

Cn1c(C(=O)NCCCN2CCOCC2)cc2c(=O)n(C)c3ccccc3c21
EC50 [2]: > 300 µM (not active) | AC50 [3]: 26.1 µM (active) | EC50 [4]: > 300 µM (not active)

Cc1cc(C)n2nc(C(=O)NNC(=O)c3ccc(Cl)cc3)nc2n1
EC50 [5]: > 120 µM (not active) | IC50 (Aminopeptidase N): 15.9 µM (active) | EC50 [6]: 12.7 µM (active) | EC50 (H4): > 120 µM (not active)

COCCCn1c(=N)c(C(=O)NCC2CCCO2)cc2c(=O)n3ccccc3nc21 (stereo not given)
IC50 (Aminopeptidase N): 60.2 µM (active)

CCCCc1cc(=O)oc2c(CN(C)C)c(O)ccc12
IC50 (Aminopeptidase N): 30.2 µM (active)

COCCN(Cc1cc2ccccc2nc1O)C(=O)c1ccccc1OC
IC50 [7]: > 100 µM (active)

C=CCn1c(=O)c2ccccc2n2c(S)nnc12
IC50 [8]: 2.61 µM (active) | IC50 [9]: > 100 µM (inactive)

Cc1[nH]c(=S)c(C#N)c2c1CCCC2
IC50 [8]: 5.25 µM (active) | IC50 [9]: > 100 µM (inactive)

COc1cc2nc3c(O)n(CCN4CCCCC4)cnc-3c2cc1OC
AC50 [3]: 36.3 µM (active)

O=C(CSc1nc2c(c(=O)n1-c1ccc(Cl)cc1)SCC2)NCC1CCCO1 (stereo not given)
IC50 (Aminopeptidase N): 58.3 µM (active)

Cc1cc(-c2nnc(S)n2-c2ccc(C)c(C)c2)no1
IC50 [8]: 8.07 µM (active) | IC50 [9]: > 100 µM (inactive)

O=S(=O)(c1ccccc1F)N1C[C@@H]2N[C@H](C1)[C@H]2c1ccc(/C=C/c2ccccc2)cc1
AC50 [10]: 3.4 µM (active) | AC50 [11]: 16.1 µM (active)

OC1CCCN(Cc2c3ccccc3cc3ccccc23)C1 (stereo not given)
AC50 [3]: 4.09 µM (active)

CN(C)CCCN(C(=O)c1cc(Cl)sc1Cl)c1nc2cc3c(cc2s1)OCO3
EC50 [1]: > 32 µM (inactive)

Clc1ccc(OCCOCCNCc2ccccc2)cc1Cl
IC50 [12]: 149 µM (active) | CC50 [13]: 91.9 µM (active)

C[C@@H]1CN([C@@H](C)CO)S(=O)(=O)c2ccc(/C=C/c3ccccc3)cc2O[C@H]1CN(C)Cc1cncnc1
AC50 [10]: 5.17 µM (active) | AC50 [11]: > 39 µM (inactive)

N#C[C@@H]1[C@H](c2ccccc2-c2cccc(F)c2)[C@H](CO)N1C(=O)NC1CCCC1
AC50 [10]: 6.42 µM (active) | AC50 [11]: > 39 µM (inactive)

CC(C)C(NC(N)=O)C(=O)NC1CCCCC1 (stereo not given)
IC50 [7]: > 100 µM (active)

COc1ccc2oc(C(=O)N3CCc4ccccc43)c(C)c2c1
AC50 [14]: 6.24 µM (active) | AC50 [15]: 20 µM (active) | AC50 [16]: 7.5 µM (active) | AC50 [17]: 21.5 µM (active) | AC50 [18]: 33.9 µM (active)

COc1ccc(CCN2C(=O)c3cccc4c(C(=O)N5CCCCC5)ccc(c34)C2=O)cc1OC
AC50 [14]: 18 µM (active) | AC50 [15]: > 52 µM (inactive) | AC50 [16]: 21.6 µM (active) | AC50 [17]: > 52 µM (inactive) | AC50 [18]: 16.7 µM (active)
